From patent US10294234B2, “HIV inhibitor compounds” (priority 2017, dated 2019)
Where two headings read alike, the source gives them in different places.

Tested on: HIV-1 (IIIB) in MT-4 cells
Experiment: MT-4 HIV assay
Assay type: cell-based
Conditions: Human immunodeficiency virus 1, MT4, 120 h
Method in brief: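 Antiviral activity was read by Cell Titer Glo after a 5-day, 37 °C culture of MT-4 cells pre-infected with a 1:250 dilution of HIV-1 (IIIB). Compounds were tested as threefold dilution series in complete RPMI. Controls were no drug, mock infection and 5 uM AZT.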

[1] = HIV-1 (IIIB), MT-4 cells, 5 days, Cell Titer Glo, read-out: EC50

`COC(=O)N[C@H](C(=O)N[C@@H](Cc1ccc(C#Cc2cnc(N3CC4CCC(C3)N4C3COC3)cc2C)cc1)[C@@H](O)CN(Cc1c(F)cc(-c2ccn(C(F)F)n2)cc1F)NC(=O)[C@@H](NC(=O)OC)C(C)(C)C(F)(F)F)C(C)(C)C(F)(F)F` [Example 151, Methyl ((5S,8S,9S,14S)-11-(4-(1-(difluoromethyl)-1H-pyrazol-3-yl)-2,6-difluorobenzyl)-16,16,16-trifluoro-9-hydroxy-15,15-dimethyl-8-(4-((4-methyl-6-(8-(oxetan-3-yl)-3,8-diazabicyclo[3.2.1]octan-3-yl)pyridin-3-yl)ethynyl)benzyl)-3,6,13-trioxo-5-(1,1,1-trifluoro-2-methylpropan-2-yl)-2-oxa-4,7,11,12-tetraazahexadecan-14-yl)carbamate] gave an EC50 [1] of 4.82 nM.

For `COC(=O)N[C@H](C(=O)N[C@@H](Cc1ccc(C#Cc2ccc(N3CC4CCC(C3)N4C(=O)[C@@H]3CCCO3)nc2)cc1)[C@@H](O)CN(Cc1c(F)cc(-c2ccccn2)cc1F)NC(=O)[C@@H](NC(=O)OC)C(C)(C)C)C(C)(C)C` [Example 225, Methyl ((5S,8S,9S,14S)-5-(tert-butyl)-11-(2,6-difluoro-4-(pyridin-2-yl)benzyl)-9-hydroxy-15,15-dimethyl-3,6,13-trioxo-8-(4-((6-(8-((S)-tetrahydrofuran-2-carbonyl)-3,8-diazabicyclo[3.2.1]octan-3-yl)pyridin-3-yl)ethynyl)benzyl)-2-oxa-4,7,11,12-tetraazahexadecan-14-yl)carbamate], the EC50 [1] was 4.26 nM.

Compound `COC(=O)N[C@H](C(=O)NN(Cc1c(F)cc(-c2cn(C(F)F)cn2)cc1F)C[C@H](O)[C@H](Cc1ccc(-c2cnc(N3CC4CCC(C3)N4C3COC3)nc2)cc1)NC(=O)[C@@H](NC(=O)OC)C(C)(C)C(F)(F)F)C(C)(C)C` [Example 190, methyl ((5S,8S,9S,14S)-11-(4-(1-(difluoromethyl)-1H-imidazol-4-yl)-2,6-difluorobenzyl)-9-hydroxy-15,15-dimethyl-8-(4-(2-(8-(oxetan-3-yl)-3,8-diazabicyclo[3.2.1]octan-3-yl)pyrimidin-5-yl)benzyl)-3,6,13-trioxo-5-(1,1,1-trifluoro-2-methylpropan-2-yl)-2-oxa-4,7,11,12-tetraazahexadecan-14-yl)carbamate] has an EC50 [1] of 7.06 nM.

With `COC(=O)N[C@H](C(=O)N[C@@H](Cc1ccc(-c2ccc(N3C[C@H]4C[C@@H]3CN4C3COC3)nc2)cc1)[C@@H](O)CN(Cc1c(F)cc(-c2ccn(C3CC3)n2)cc1F)NC(=O)[C@@H](NC(=O)OC)C(C)(C)C(F)(F)F)C(C)(C)C(F)(F)F` [Example 194, Methyl ((5S,8S,9S,14S)-11-(4-(1-cyclopropyl-1H-pyrazol-3-yl)-2,6-difluorobenzyl)-16,16,16-trifluoro-9-hydroxy-15,15-dimethyl-8-(4-(6-((1R,4R)-5-(oxetan-3-yl)-2,5-diazabicyclo[2.2.1]heptan-2-yl)pyridin-3-yl)benzyl)-3,6,13-trioxo-5-(1,1,1-trifluoro-2-methylpropan-2-yl)-2-oxa-4,7,11,12-tetraazahexadecan-14-yl)carbamate] the EC50 was 7.2 nM.

Compound `COC(=O)N[C@H](C(=O)N[C@@H](Cc1ccc(C#Cc2ccc(N3CC4CCC(C3)N4C3COC3)nc2)cc1)[C@@H](O)CN(Cc1c(F)cc(-c2ccc(C(F)F)nc2)cc1F)NC(=O)[C@@H](NC(=O)OC)C(C)(C)C(F)(F)F)C(C)(C)C(F)(F)F` [Example 100, Methyl ((5S,8S,9S,14S)-11-(4-(6-(difluoromethyl)pyridin-3-yl)-2,6-difluorobenzyl)-16,16,16-trifluoro-9-hydroxy-15,15-dimethyl-8-(4-((6-(8-(oxetan-3-yl)-3,8-diazabicyclo[3.2.1]octan-3-yl)pyridin-3-yl)ethynyl)benzyl)-3,6,13-trioxo-5-(1,1,1-trifluoro-2-methylpropan-2-yl)-2-oxa-4,7,11,12-tetraazahexadecan-14-yl)carbamate] has an EC50 [1] of 7.96 nM.
